Blank lines part the entries; values can stand above or below the compound they belong to.
Experiments:
Type in all cases: physicochemical
[1] = Variable temperature XRPD (VT-XRPD)
Description: Variable temperature studies were performed with an Anton Paar TTK450 temperature chamber under computer control through an Anton Paar TCU100 temperature control unit. Typically the measurements were done with a nitrogen flow through the camera. Two measurement schemes were used, restricted and continuous. In the restricted mode, measurements were made, only after the TK450 chamber reached the requested temperature. In the continuous mode, the sample was heated at 10° C./minute and fast scans were measured as the temperature changed. After the requested temperature was reached, the sample was cooled at 35° C./minute and a slow scan measured 25° C. The temperatures chosen were based on DSC results. For the diffractometer set-up a 10 mm beam mask, 0.04 radian Soller slits and fixed (1⁄4°) divergence and anti-scatter (1⁄8°) slits were inserted on the incident beam side. A fixed 0.10 mm receiving slit, 0.04 radian Soller slits and a 0.02 mm Nickel filter were inserted on the diffracted beam side. […] A variable temperature study was performed for Form A1 according to the protocol set out in II above.

[2] = Solid-solid transition on storage at controlled humidity, 25° C. (XRPD)
Description: Approximately 100 mg of Form A1 was exposed to 100% RH at 25° C. over 1 day. Analysis by XRPD confirmed quantitative conversion of the material to Form […].

[3] = Gravimetric Vapor Sorption (GVS); settings: for Moisture uptake / XRPD analysis of the after GVS sample: GVS 70-0-90% RH
Description: Gravimetric Vapor Sorption experiments have been carried out using the DVS-HT instrument (Surface Measurement Systems, London, UK). This instrument measures the uptake and loss of vapor gravimetrically using a recording ultra-microbalance with a mass resolution of ±0.1 μg. […] The desired temperature is maintained at ±0.1° C. […] (3 cycles). The DVS experiment was started at 70% RH (red line) to ensure that there was no moisture loss. The sample was kept at 70% RH for 2 hours. […] After each cycle the moisture uptake decreases to 21, 15, and 2.3% respectively at 90% RH. Significant polymorphic changes were observed by XRPD analysis of the “after GVS” samples.

[4] = Solid state stress stability at 40° C./75% RH (XRPD, stability-indicating HPLC); settings: for Area Purity (%): 40° C./75% RH, HPLC
Description: Powder X-Ray Diffraction patterns were recorded on a PANalytical X Pert Pro diffractometer equipped with an X celerator detector using Cu Kα radiation at 40 kV and 40 mA. Kα1 radiation is obtained with a highly oriented crystal (Ge111) incident beam monochromator. A 10 mm beam mask, and fixed (¼°) divergence and anti-scatter (⅛°) slits were inserted on the incident beam side. A fixed 0.10 mm receiving slit was inserted on the diffracted beam side. […] The sample was spread on silicon zero background (ZBG) plate for the measurement. The sample was rotated at 4°/min on a PANalytical PW3064 Spinner.
Typically 10 μL aliquots of the sample solutions were diluted to 1 mL with acetonitrile and the assay concentrations were determined from an average of duplicate injections using the following HPLC method. The purity and impurity analyses are done using conventional HPLC.
Stress stability studies were performed to assess the influence of temperature and humidity on stability of Forms A1 and H4A1. A stability-indicating HPLC assay method was developed for quantification of Compound 1. The developed method, described above in section VII, is specific, accurate, precise and robust.

[5] = Stability to mechanical stress (grinding, XRPD); settings: after thirty minutes of grinding
Description: A Wig-1-Bug (Piketech, USA) was used to grind Forms A1 and H-4A1. Each sample (50 mg) was ground for periods of 5, 10, 15 and 30 minutes. Each grinding was carried out in a 2.82 cm^3 container using 0.9 g stainless steel ball ([…]). The vial was swung through a 6.5° arc at 3200 rpm, causing the ball to strike the end of the vial at over 100 Hz.

Hydrate formation under GVS conditions ([3]; GVS, 0-90% RH cycles): did not appear to form a hydrate
Hygroscopicity (adsorption and desorption curves) ([3]; GVS, 0-90% RH cycles): not hygroscopic
Amount of moisture adsorbed ([3]; GVS, at 90% RH): approximately 1.8%
Amount of moisture adsorbed ([3]; GVS, relative humidity not printed (below 90% RH)): less than 0.8%
XRPD before and after GVS ([3]; after GVS, 0-90% RH cycles): no significant changes after GVS
Changes on storage as assessed by XRPD ([4]; 4 weeks of storage at 40 degrees C. at 75% relative humidity): No significant changes
Chemical degradation ([4]; 40° C./75% RH after 4 weeks): chemical degradation was not observed
Water uptake from the environment in the solid state ([4]; 40° C./75% RH after 4 weeks): not observed to take up water
Area Purity (%) ([4]; 0 days, hydrochloride): 99.5%
Area Purity (%) ([4]; 7 days, hydrochloride): 99.6%
Area Purity (%) ([4]; 14 days, hydrochloride): 99.7%
Area Purity (%) ([4]; 28 days): 99.5%
SMILES: C[C@@H]1CCCN1CCCOc1ccc(-c2ccc(=O)[nH]n2)cc1.Cl [Form A1, 6-[4-[3-((R)-2-methylpyrrolidine-1-yl)-propoxy]phenyl]2H-pyridazine-3-one hydrochloride]
Solid-solid transformation on heating (VT-XRPD) ([1]; temperature range of 20° C. to 250° C.): No solid-solid transformation was observed
XRPD after exposure to humidity ([2]; 100% RH at 25° C. over 1 day): quantitative conversion of the material to Form H4A1
Change in crystal form on grinding (XRPD) [5]: did not generate a change in crystal form
Crystallinity by XRPD after grinding [5]: crystallinity had been significantly reduced

Temperature at which polymorphic transformation to Form A1 was observed (VT-XRPD) ([1]; Form B1 made by dehydrating Form H4A1 at 25-100° C., 0% RH): 220 °C
SMILES: C[C@@H]1CCCN1CCCOc1ccc(-c2ccc(=O)[nH]n2)cc1.Cl [Form B1, 6-[4-[3-((R)-2-methylpyrrolidine-1-yl)-propoxy]phenyl]2H-pyridazine-3-one hydrochloride]

Moisture uptake ([3]; at 90% RH, first cycle): 21%
Moisture uptake ([3]; at 90% RH, second cycle): 15%
Moisture uptake ([3]; at 90% RH, third cycle): 2.3%
XRPD analysis of the after GVS sample ([3]; first cycle): mixture of Forms A1 and H4A1
XRPD analysis of the after GVS sample ([3]; second cycle): mixture of Forms A1 and H4A1
Area Purity (%) ([4]; 0 days, hydrochloride): 99.6%
Area Purity (%) ([4]; 7 days, hydrochloride): 99.5%
Area Purity (%) ([4]; 14 days, hydrochloride): 99.5%
Area Purity (%) ([4]; 28 days): 99.5%
Physical and chemical stability on storage ([4]; 28 days at 40° C. and 75% RH): physically and chemically stable
SMILES: C[C@@H]1CCCN1CCCOc1ccc(-c2ccc(=O)[nH]n2)cc1.Cl [Form H4A1, 6-[4-[3-((R)-2-methylpyrrolidine-1-yl)-propoxy]phenyl]2H-pyridazine-3-one hydrochloride]
XRPD after storage ([2]; 25° C./0% RH for 7 days): quantitative conversion of the material to Form A1
XRPD analysis of the after GVS sample ([3]; third cycle): Complete conversion of Form H4A1 to Form A1

From patent US20140275102A1, “Solid State Forms of 6-[4-[3-((R)-2-Methylpyrrolidine-1-yl)-propoxy]phenyl] 2H-pyridazine-3-one Hydrochloride” (Cephalon Inc., priority 2013, published 2014)
